Laboratory results as given in the supplement of paper PMC10307832.

Assays:
Assay in all cases: relative viability (nuclei count vs DMSO), 5 days (fraction); higher = more cells survive
SW 1573 = test system: SW 1573
Procedure, shortened: (§1)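 For relative viability, nuclei counts in treated wells were divided by those in vehicle wells. Lung cancer cell lines had been pin-tool dosed in 1536-well plates the day after seeding and cultured for 5 days, then fixed and stained in one step (final 0.05% Triton X-100, 1% formaldehyde, 1 ug/ml Hoechst) and imaged at 4×. Doses were one drug alone or a fixed anchor-drug dose plus five library-drug doses (not always all listed) in √10 steps, and values are duplicate-plate medians.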

NCI-H2228 = test system: NCI-H2228
Procedure, shortened: as §1

NCI-H1915 = test system: NCI-H1915
Procedure, shortened: as §1

NCI-H2342 = test system: NCI-H2342
Procedure, shortened: as §1

UMC-11 = test system: UMC-11
Procedure, shortened: as §1

LC-2-ad = test system: LC-2-ad
Procedure, shortened: as §1

A-427 = test system: A-427
Procedure, shortened: as §1

RERF-LC-KJ = test system: RERF-LC-KJ
Procedure, shortened: as §1

NCI-H23 = test system: NCI-H23
Procedure, shortened: as §1

HCC-366 = test system: HCC-366
Procedure, shortened: as §1

NCI-H2170 = test system: NCI-H2170
Procedure, shortened: as §1

NCI-H650 = test system: NCI-H650
Procedure, shortened: as §1

NCI-H1993 = test system: NCI-H1993
Procedure, shortened: as §1

NCI-H1792 = test system: NCI-H1792
Procedure, shortened: as §1

NCI-H2347 = test system: NCI-H2347
Procedure, shortened: as §1

SK-LU-1 = test system: SK-LU-1
Procedure, shortened: as §1

HCC-827 = test system: HCC-827
Procedure, shortened: as §1

NCI-H1734 = test system: NCI-H1734
Procedure, shortened: as §1

NCI-H1355 = test system: NCI-H1355
Procedure, shortened: as §1

LCLC-103H = test system: LCLC-103H
Procedure, shortened: as §1

NCI-H1755 = test system: NCI-H1755
Procedure, shortened: as §1

SK-MES-1 = test system: SK-MES-1
Procedure, shortened: as §1

NCI-H1975 = test system: NCI-H1975
Procedure, shortened: as §1

In the case of Cc1cn(-c2cc(NC(=O)c3ccc(C)c(Nc4nccc(-c5cccnc5)n4)c3)cc(C(F)(F)F)c2)cn1 [Nilotinib] + COc1cccc2cc(-c3nc([C@H]4CC[C@H](C(=O)O)CC4)n4ncnc(N)c34)[nH]c12 [OSI-027] (partner 0.5 µM), the relative viability (SW 1573; first compound 0.001 µM) is reported as 0.566, the relative viability (SW 1573; first compound 0.003162 µM) is reported as 0.751 and the relative viability (SW 1573; first compound 0.01 µM) is reported as 0.72. It also gave a relative viability (SW 1573; first compound 0.03162 µM) of 0.276, a relative viability (SW 1573; first compound 0.1 µM) of 0.155 and a relative viability (NCI-H2228; first compound 0.003162 µM) of 0.631. For the same compound, the relative viability (NCI-H2228; first compound 0.01 µM) was 0.588, the relative viability (NCI-H2228; first compound 0.03162 µM) was 0.449 and the relative viability (NCI-H2228; first compound 0.1 µM) was 0.217. For the same compound, the relative viability (NCI-H1915; first compound 0.001 µM) was 0.552, the relative viability (NCI-H1915; first compound 0.003162 µM) was 0.659 and the relative viability (NCI-H1915; first compound 0.01 µM) was 0.61. The relative viability (NCI-H1915; first compound 0.03162 µM) was 0.567, the relative viability (NCI-H1915; first compound 0.1 µM) was 0.338 and the relative viability (NCI-H2342; first compound 0.001 µM) was 0.605. The relative viability (NCI-H2342; first compound 0.003162 µM) was 0.618, the relative viability (NCI-H2342; first compound 0.01 µM) was 0.558 and the relative viability (NCI-H2342; first compound 0.03162 µM) was 0.536. For the same compound, the relative viability (NCI-H2342; first compound 0.1 µM) was 0.518, the relative viability (UMC-11; first compound 0.001 µM) was 0.482 and the relative viability (UMC-11; first compound 0.003162 µM) was 0.527. The relative viability (UMC-11; first compound 0.01 µM) was 0.432, the relative viability (UMC-11; first compound 0.1 µM) was 0.246 and the relative viability (LC-2-ad; first compound 0.001 µM) was 0.739. For the same compound, the relative viability (LC-2-ad; first compound 0.003162 µM) was 0.909, the relative viability (LC-2-ad; first compound 0.01 µM) was 0.795 and the relative viability (LC-2-ad; first compound 0.03162 µM) was 0.728. It also gave a relative viability (LC-2-ad; first compound 0.1 µM) of 0.472, a relative viability (A-427; first compound 0.001 µM) of 0.369 and a relative viability (A-427; first compound 0.003162 µM) of 0.456. It also gave a relative viability (A-427; first compound 0.01 µM) of 0.44, a relative viability (A-427; first compound 0.03162 µM) of 0.297 and a relative viability (A-427; first compound 0.1 µM) of 0.154. It also gave a relative viability (RERF-LC-KJ; first compound 0.001 µM) of 0.501, a relative viability (RERF-LC-KJ; first compound 0.003162 µM) of 0.586 and a relative viability (RERF-LC-KJ; first compound 0.01 µM) of 0.53. The relative viability (RERF-LC-KJ; first compound 0.03162 µM) was 0.438, the relative viability (RERF-LC-KJ; first compound 0.1 µM) was 0.374 and the relative viability (NCI-H23; first compound 0.001 µM) was 0.58. For the same compound, the relative viability (NCI-H23; first compound 0.003162 µM) was 0.418, the relative viability (NCI-H23; first compound 0.01 µM) was 0.418 and the relative viability (NCI-H23; first compound 0.03162 µM) was 0.361. The relative viability (NCI-H23; first compound 0.1 µM) was 0.412, the relative viability (HCC-366; first compound 0.001 µM) was 0.644 and the relative viability (HCC-366; first compound 0.003162 µM) was 0.93. It also gave a relative viability (HCC-366; first compound 0.01 µM) of 0.663, a relative viability (HCC-366; first compound 0.03162 µM) of 0.203 and a relative viability (HCC-366; first compound 0.1 µM) of 0.147. It also gave a relative viability (NCI-H2170; first compound 0.001 µM) of 0.662, a relative viability (NCI-H2170; first compound 0.003162 µM) of 0.589 and a relative viability (NCI-H2170; first compound 0.01 µM) of 0.832. It also gave a relative viability (NCI-H2170; first compound 0.03162 µM) of 0.828, a relative viability (NCI-H2170; first compound 0.1 µM) of 0.563 and a relative viability (NCI-H650; first compound 0.001 µM) of 0.406. For the same compound, the relative viability (NCI-H650; first compound 0.003162 µM) was 0.526, the relative viability (NCI-H650; first compound 0.01 µM) was 0.486 and the relative viability (NCI-H650; first compound 0.03162 µM) was 0.441. It also gave a relative viability (NCI-H650; first compound 0.1 µM) of 0.362, a relative viability (NCI-H1993; first compound 0.001 µM) of 0.547 and a relative viability (NCI-H1993; first compound 0.003162 µM) of 0.551. It also gave a relative viability (NCI-H1993; first compound 0.01 µM) of 0.536, a relative viability (NCI-H1993; first compound 0.03162 µM) of 0.487 and a relative viability (NCI-H1993; first compound 0.1 µM) of 0.562. It also gave a relative viability (NCI-H1792; first compound 0.001 µM) of 0.503, a relative viability (NCI-H1792; first compound 0.003162 µM) of 0.473 and a relative viability (NCI-H1792; first compound 0.01 µM) of 0.667. The relative viability (NCI-H1792; first compound 0.1 µM) was 0.555, the relative viability (NCI-H2347; first compound 0.001 µM) was 0.512 and the relative viability (NCI-H2347; first compound 0.003162 µM) was 0.429. For the same compound, the relative viability (NCI-H2347; first compound 0.01 µM) was 0.388, the relative viability (NCI-H2347; first compound 0.03162 µM) was 0.364 and the relative viability (NCI-H2347; first compound 0.1 µM) was 0.419. It also gave a relative viability (SK-LU-1; first compound 0.001 µM) of 0.313, a relative viability (SK-LU-1; first compound 0.003162 µM) of 0.322 and a relative viability (SK-LU-1; first compound 0.01 µM) of 0.302. It also gave a relative viability (SK-LU-1; first compound 0.03162 µM) of 0.258, a relative viability (SK-LU-1; first compound 0.1 µM) of 0.265 and a relative viability (HCC-827; first compound 0.003162 µM) of 0.822. For the same compound, the relative viability (HCC-827; first compound 0.01 µM) was 0.85, the relative viability (HCC-827; first compound 0.03162 µM) was 0.603 and the relative viability (NCI-H1734; first compound 0.001 µM) was 0.57. The relative viability (NCI-H1734; first compound 0.003162 µM) was 0.595, the relative viability (NCI-H1734; first compound 0.01 µM) was 0.64 and the relative viability (NCI-H1734; first compound 0.03162 µM) was 0.435. It also gave a relative viability (NCI-H1734; first compound 0.1 µM) of 0.261, a relative viability (NCI-H1355; first compound 0.001 µM) of 0.384 and a relative viability (NCI-H1355; first compound 0.003162 µM) of 0.388. It also gave a relative viability (NCI-H1355; first compound 0.01 µM) of 0.324, a relative viability (NCI-H1355; first compound 0.03162 µM) of 0.314 and a relative viability (NCI-H1355; first compound 0.1 µM) of 0.329. For the same compound, the relative viability (LCLC-103H; first compound 0.001 µM) was 0.406, the relative viability (LCLC-103H; first compound 0.003162 µM) was 0.58 and the relative viability (LCLC-103H; first compound 0.01 µM) was 0.508. The relative viability (LCLC-103H; first compound 0.03162 µM) was 0.432, the relative viability (LCLC-103H; first compound 0.1 µM) was 0.407 and the relative viability (NCI-H1755; first compound 0.001 µM) was 0.792. The relative viability (NCI-H1755; first compound 0.003162 µM) was 0.617, the relative viability (NCI-H1755; first compound 0.01 µM) was 0.74 and the relative viability (NCI-H1755; first compound 0.03162 µM) was 0.553. For the same compound, the relative viability (NCI-H1755; first compound 0.1 µM) was 0.383, the relative viability (SK-MES-1; first compound 0.001 µM) was 0.474 and the relative viability (SK-MES-1; first compound 0.003162 µM) was 0.544. It also gave a relative viability (SK-MES-1; first compound 0.01 µM) of 0.662, a relative viability (SK-MES-1; first compound 0.03162 µM) of 0.342 and a relative viability (SK-MES-1; first compound 0.1 µM) of 0.327. For the same compound, the relative viability (NCI-H1975; first compound 0.001 µM) was 0.598, the relative viability (NCI-H1975; first compound 0.003162 µM) was 0.53 and the relative viability (NCI-H1975; first compound 0.01 µM) was 0.149. For the same compound, the relative viability (NCI-H1975; first compound 0.03162 µM) was 0.409 and the relative viability (NCI-H1975; first compound 0.1 µM) was 0.32.
